Experimental data from US20200319201A1, “METHODS FOR MONITORING TUBERCULOSIS MEDICATION” (priority 2017, published 2020).

Assay: Liquid chromatography mass spectrometry analysis of fingerprint sweat samples for Tuberculosis medication and metabolite
Type: in vivo, human
Conditions: for percentage of fingerprint samples in which detected: 75 samples; for number of fingerprint samples in which detected (of 25 fingerprints): 5 subjects who had finished a course of Isoniazid at least 72 hours previously
Description: All subjects from whom fingerprint samples were taken were human. Fingerprints were taken from the five fingers (i.e. the four fingers and the thumb) of each subject's right hand: • without the hand having been washed; or • after the hand has been washed with soap and water, and covered with a clean surgical glove for 10 minutes, without contacting any other surface.
The chromatography paper with fingerprint samples thereon were placed in a 2 ml Eppendorf microcentrifuge tube, following which an extraction solution (1.5 ml of 10% dichloromethane in methanol) was added. The tube was then centrifuged for 2 min (at 9.5 centrifugal force). The solvent extract was evaporated to dryness under a stream of nitrogen at room temperature (20° C.) and reconstituted in 100 μl mobile phase solution (95:5 water/acetonitrile+0.1% formic acid+iosotopically labelled internal standards) before being vortexed and transferred to a 300 μl glass micro-insert vial, with 5 μl being injected onto an LC-MS/MS system.
Chromatographic separation was performed on a Thermo Scientific™ Ultimate3000 UHPLC system equipped with a binary solvent manager, column manager and autosampler. The injection volume was 5 μL. Separation was performed on a Kinetex XB-C18 column (100×2.1 mm, 5 μm) operated at 30° C. at a flow rate of 0.25 ml/min. Mobile phase comprises 95% H2O (0.1% formic acid) and 5% acetonitrile (ACN) (0.1% formic acid).
The prepared samples were introduced to a Thermo Orbitrap Q-Exactive Plus mass spectrometer using the standard ESI interface with a capillary temperature of 320° C. and spray voltage 3 kV. Positive mass spectra were acquired in full scan mode within a range of m/z 50-500 at a mass resolution of 70 000 at m/z 200.

[1] = after washing hands using soap and water, same subjects as Example 1, isoniazid 300 mg (one 400 mg)
[2] = after washing hands using soap and water, same subjects as Example 1
[3] = hands not washed, approximately 3 hours after 300 mg isoniazid (one subject 400 mg), 15 subjects
[4] = hands not washed, approximately 3 hours after 300 mg isoniazid (one subject 400 mg)
[5] = hands washed using soap and water
[6] = sample obtained 2 hours after the subject had taken Isoniazid
[7] = sample obtained 72 hours after the subject had taken Isoniazid

Compound: CC(=O)NNC(=O)c1ccncc1 [Acetylisoniazid]
- number of fingerprint samples in which detected (out of the 75 fingerprint samples) [1]: 72
- percentage of fingerprint samples in which detected [2]: 96%
- number of fingerprint samples in which detected (of 25 fingerprints) (hands not washed): 0
- number of fingerprint samples in which detected (out of the 75 fingerprint samples) [3]: 73
- percentage of fingerprint samples in which detected [4]: 97%
- number of fingerprint samples in which detected (of 25 fingerprints) [5]: 0
- presence in fingerprint sweat sample [6]: shows the presence
- presence in fingerprint sweat sample [7]: does not show the presence

Compound: NNC(=O)c1ccncc1 [Isoniazid]
- number of fingerprint samples in which detected (out of the 75 fingerprint samples) [1]: 40
- percentage of fingerprint samples in which detected [2]: 53%
- number of fingerprint samples in which detected (of 25 fingerprints) (hands not washed): 0
- number of fingerprint samples in which detected (out of the 75 fingerprint samples) [3]: 51
- percentage of fingerprint samples in which detected [4]: 68%
- number of fingerprint samples in which detected (of 25 fingerprints) [5]: 0
- presence in fingerprint sweat sample [6]: shows the presence
- presence in fingerprint sweat sample [7]: does not show the presence

Compound: NC(=O)c1cnccn1 [pyrazinamide, Pyrazinamide]
- presence in fingerprint sample (approximately 3 hours after 1,000 mg pyrazinamide, hands washed): presence of pyrazinamide is evidenced
